Source: US20060135500A1, “Novel oral pharmaceutical suspension of cefdinir crystal” (Astellas Pharma Inc., priority 2004, published 2006)

Assays:
Type in all cases: physicochemical
[1] = Dispersibility comparison assay, Method 1 (visual observation of suspension in test tube); settings: summary statement
Experimental: The dispersibility of two crystal forms of Cefdinir was compared by evaluating sedimentation rates of two crystal forms. The evaluating sedimentation rate was conducted by using two methods as follow. About 1250 mg of crystal form A or the monohydrate were dispersed in 50 mL of water (125 mg/5 mL), and the suspensions were vigorously shaken by hand. […] The pictures of suspension states were taken with time.

[2] = Dispersibility comparison assay, Method 2 (change of transmittance at 650 nm); settings: 5 mg in 10 mL of water (0.5 mg/mL)
Experimental: The dispersibility of two crystal forms of Cefdinir was compared by evaluating sedimentation rates of two crystal forms. The evaluating sedimentation rate was conducted by using two methods as follow.
5 mg of crystal form A or the monohydrate were dispersed in 10 mL of water (sample concentration: 0.5 mg/mL), and the suspensions were vigorously shaken. Then, the dispersed suspensions were transferred in the cell for UV measurement, and changes of the transmittances at 650 nm were measured.

[3] = Solvent medium transformation (suspension in water or ethanol, PXRD of residual solid); settings: water or ethanol (99.5), room temperature
Experimental: Form A and the monohydrate were suspended in water or ethanol (99.5) at room temperature, and the powder X-ray diffraction (PXRD) patterns of the residual solid materials were measured (Bruker AXS D8 Discover with GADDS).

Compound | dispersibility in aqueous solvent [1] | sedimentation rate in aqueous solvent [1] | change of transmittance of suspension at 650 nm [2] | crystalline conversion in aqueous and ethanol suspensions (PXRD of residual solid) [3]
C=CC1=C(C(=O)O)N2C(=O)C(NC(=O)C(=NO)c3csc(N)n3)[C@H]2SC1 (single isomer, unassigned) [crystal form C, 7-[2-(2-aminothiazol-4-yl)-2-hydroxyiminoacetamido]-3-vinyl-3-cephem-4-carboxyl ic acid (syn isomer)] | higher than that of crystal form A | lower than that of crystal form A |  | 
C=CC1=C(C(=O)O)N2C(=O)C(NC(=O)C(=NO)c3csc(N)n3)[C@H]2SC1 (single isomer, unassigned) [form A, 7-[2-(2-aminothiazol-4-yl)-2-hydroxyiminoacetamido]-3-vinyl-3-cephem-4-carboxyl ic acid (syn isomer)] |  |  | faster increase than that of the monohydrate | no crystalline conversion to other crystal form
